Source: patent US20260027161A1, “BACTERIAL STRAINS FOR TREATING DISEASE” (MICROBA IP PTY LTD, priority 2021, published 2026)

Assays:
[1] = test system: mild to moderate flares of ulcerative colitis; conditions: first line therapy; cited from earlier work
[2] = test system: IL-23-mediated activation of STAT3; test: IL-23 mediated STAT3 activation, HEK-Blue IL-23 reporter cell line (SEAP); type: cell-based, human
From the text: The present inventors next sought to investigate whether bacterial products naturally produced by the gut bacterium I. colisanans MH27, can modulate IL-23 mediated activation of STAT3. The JAK-STAT immune axis is a recognised and validated drug target for IBD (Salas et al., 2020) and other diseases (McLornan et al., 2021) with JAK-STAT pathway signalling targeted by several approved IBD therapeutics including anti-IL-23 antibodies (e.g., Ustekinumab) and small molecule inhibitors (e.g., tofacitinib) (Hu et al., 2021). As STAT3 suppression can reduce damaging inflammation, I. colisanans MH27 and/or its bioactives could potentially be used as novel immunoregulatory therapies for IBD and other diseases. The present inventors therefore examined whether I. colisanans MH27 can suppress IL-23-mediated activation of STAT3 using the HEK-Blue™ IL-23 reporter cell line. […]
IL-23-mediated STAT3 activity was assessed using the HEK Blue IL-23 cell line (Invivogen). […] SEAP is secreted into the medium and the extent of SEAP expression can be quantified using QUANTI-Blue solution. […]
SEAP production was quantified using QUANTI-BIue™ solution and recorded as optical density (OD) at 630 nm using a PHERAstar FS plate reader (BMG Labtech). […]

[3] = test system: ZO1 expression in T84 cells; test: IFNγ-mediated loss of ZO1 expression in T84 cells (immunofluorescence); type: cell-based, human; conditions: pre-treatment with 1 mM metabolite for 18 hours, IFNγ 48 hours
[4] = test system: IL-6 mediated activation of STAT3; test: IL-6 mediated STAT3 activation, HEK-Blue IL-6 reporter cell line (SEAP); type: cell-based, human; conditions: control inhibitor, 10 μM
From the text: (§1) Increased levels of the pro-inflammatory cytokine IL-6 and signalling via its receptor IL-6R is associated with IBD pathogenesis. […] These effects are mediated by IL-6 receptor binding which causes JAK kinase activation and STAT3 dimerization in combination with activation of MAPK/ERK and other downstream kinases. Here, we examined whether I. colisanans MH27-1 and MH27-2 can suppress IL-6 classical and trans signalling mediated activation of STAT3 using the HEK-Blue™ IL-6 reporter cell line. The HEK-Blue™ IL-6 reporter cell line constitutively expresses the human IL-6 receptor and binding of IL-6 to the receptor triggers expression of a STAT3-responsive SEAP reporter. […] Additionally, I. colisanans MH27-2 suppressed IL-6 trans signalling mediated activation of STAT3 (FIG. 6G).
(§2) To assess IL-6 and IL-6/IL-6R-mediated STAT3 suppressive activity, three independent colonies were inoculated and grown until early stationary phase. […]
(§3) IL-6- and IL-6/IL-6R mediated STAT3 activity was assessed using the HEK Blue IL-6 cell line (Invivogen). […] After 24 hours, the STAT3 regulated SEAP reporter activity was assessed using Quanti Blue solution as recommended by the manufacturer (Invivogen). […] Cytotoxicity was assessed using the CellTiter-Glo® 2.0 Cell Viability Assay (Promega, Australia) as recommended by the manufacturer.

[5] = test system: IL-6 trans signalling mediated activation of STAT3; test: IL-6/IL-6R trans signalling mediated STAT3 activation, HEK-Blue IL-6 reporter cell line; type: cell-based, human; conditions: control inhibitor, 10 μM
From the text: as §1, §2, §3

[6] = test system: DSS induced murine colitis; test: Acute model of DSS induced murine colitis, prophylactic model; type: in vivo, C57BL/6 female mice
From the text: The present inventors hypothesised that the big-data approach could be used to identify novel candidate live biotherapeutics for inflammatory bowel disease. We therefore tested the therapeutic efficacy of I. colisanans MH27-1 in an acute model of DSS induced murine colitis (FIG. 4A) as this is a well-documented model of epithelial injury and repair. […] As expected, prednisone exacerbated the DSS induced weight loss (Yamamoto, 2013), however DSS induced weight loss was ameliorated by treatment with I. colisanans MH27-1 or F. prausnitzii A2-165 (FIG. 4B).
I. colisanans strains were grown to early stationary phase in PYG or YG/V. F. prausnitzii was grown in TY medium. The cell density of the individual cultures was calculated using a Helber Counting Chamber. To prepare the bacterial gavage solutions, individual cultures were centrifuged under a layer of sterile heavy mineral oil at 5,000 g for 10 minutes and the cell-free supernatant was then discarded. The cell pellets were washed in 1.5 ml of sterile anaerobic buffered diluent (38 ml/L each of salt solutions 2 & 3 (McSweeney, 2005), 1 ml/L of 0.1% (w/v) resazurin solution, 1 g/L L-cysteine) and then centrifuged again. […]
For the prophylactic model, six-week-old C57BL/6 female mice purchased from Animal Resources Centres (Western Australia, Australia) were randomised and then co-housed for 7 days prior to experimentation. […] Body weights and stool consistency were recorded daily. […]
Animals were examined with a small animal gastrointestinal endoscope (Karl Storz Endoskope, Tuttlingen, Germany) on days −1, 2 and 6 to assess the extent of colon mucosal inflammation (Marks, 2015; and Liu, 2019). […] To grade colitis severity, the extent of inflammation and epithelial injury in the tissue sections were graded semi-quantitatively using an established scoring system (Table 6). The samples were then randomised and subsequently scored in a blinded by a trained gastrointestinal pathologist.

[7] = test system: DSS colitis; test: Acute mouse model of DSS colitis, therapeutic model (I. colisanans MH27-2); type: in vivo, female C57BL/6 mice; conditions: 2.5% DSS, daily treatment Day 4 to Day 10
From the text: The therapeutic efficacy of I. colisanans MH27-2 in an acute mouse model of DSS colitis was examined, with prednisone acting as a positive control drug.
For the therapeutic model, groups of 10 or 20 female C57BL/6 mice were used. All animals, except those in the healthy group, were given 2.5% dextran sodium sulfate (DSS) in the drinking water for 6 days total (Day 0 to Day 5). DSS was then withdrawn and replaced with normal drinking water for a further 5 days (Day 6 to Day 10). For the treatments, mice were given once daily oral gavage of 200 μL of I. colisanans MH27-2 at a dose of 2×10^8 viable cells per day, or vehicle consisting of sterile glycerol and phosphate buffered salt solution. The positive control drug prednisone was similarly administered via oral gavage at a dose of 2 mg/kg per day. Treatments started on Day 4 and were given for 7 consecutive days until Day 10. Animals were sacrificed on Day 10 approximately 4 hours after the final treatment. Colon was harvested, rinsed, weighed, photographed, cut longitudinally. Colon tissue was fixed in 4% formalin and kept in 70% ethanol for histopathology using the Swiss-roll method.

[8] = DSS treated mice, colon histology

SMILES: Nc1ccc(O)c(C(=O)O)c1 [Mesalmine]
- response rates [1]: 40%-70%

SMILES: O=C1NC(Cc2ccccc2)C(=O)N2CCCC12 (centres unmarked) [cyclo(-Phe-Pro)]
- IL-23 mediated activation of STAT3 ([2]; pure metabolite, relative to the vehicle control): suppressed

SMILES: O=C(O)C=Cc1c[nH]c2ccccc12 [IAyA, indole-3-acrylic acid]
- IFNγ-induced reduction in ZO1 expression [3]: significantly ameliorated

SMILES: C[C@@H]1CCN(C(=O)CC#N)C[C@@H]1N(C)c1ncnc2[nH]ccc12 [tofacitinib]
- IL-6 mediated activation of STAT3 [4]: fully prevented
- IL-23 mediated activation of STAT3 ([2]; control inhibitor, 5 μM): fully prevented
- IL-6/IL-6R mediated activation of STAT3 [5]: fully prevented

SMILES: C[C@]12C=CC(=O)C=C1CC[C@@H]1[C@@H]2C(=O)C[C@@]2(C)[C@H]1CC[C@]2(O)C(=O)CO [prednisone]
- DSS induced weight loss (body weight) ([6]; 3.5% DSS, daily treatment, compared to DSS+vehicle): exacerbated
- disease pathology (histopathological score) [6, 8]: significant improvement in disease pathology
- epithelial injury [6, 8]: ameliorated
- histological evidence of colitis [7]: ameliorated

SMILES: O=C(O)CCc1c[nH]c2ccccc12 [IPA, indole-3-proprionic acid]
- IFNγ-induced reduction in ZO1 expression [3]: significantly ameliorated
